According to patent US20060135624A1, “Natural compound useful for treating diabetes, its preparation and use” (JINGYU LIANG ET AL, priority 2002, published 2006):

Columns and labels:
[1] = system: normal mice; assay: Test of acute toxicity by intravenous administration; type: in vivo; settings: 5.04 g/kg intravenous injection
Description: 1) Experimental Method • 20 Normal mice (half male and half female) were administrated with 5.04 g/kg Sequoyitol (which reached the maximum concentration and the maximum intravenous administration volume) by intravenous injection. The animals' responses were observed. The mice were executed after 14 days, and their organs were macroscopically observed.

[2] = system: rat hyperglycemia induced by alloxan; assay: Effect of Sequoyitol on rat hyperglycemia induced by alloxan; type: in vivo, SD rats
Experimental: 1. Experimental Methods^[5,6] • 5 Rats were randomly selected as normal group, the other 55 rats were fasted for 14-16 hours, administrated with 30 mg/kg of Pentobarbital by intra-abdominal injection. After paralyzed, the rats were administrated with 48 mg/kg of alloxan by vena femoralis injection, modeled according to methods of documents, and divided into 5 groups according to blood-sugar level, wherein each group had 11 rats, and 4 groups were orally administrated with 25, 50 and 100 mg/kg of Sequoyitol and 75 mg/kg of phenformine according to 1 ml/100 g of body weight, respectively, and the normal group and modeling group were administrated with the same volum of distilled water. These administrations were conducted for continuous 18 days. The fasting blood-sugar levels of the rats were separately measured at 6th and 12th day after the administration. At the 18th day, blood was collected from arteria femoralis, and the blood sugar level, insulin level, cholesterol content, triglyceride content, malonaldehyde content, and hepatocuprein activity of serum were measured; liver tissue was homogenated, and the malonaldehyde content, and hepatocuprein activity of liver tissue were measured; and pancreatic gland was soaked in 10% formalin, embedded with paraffin, sliced, and dyed with HE.

[3] = system: blood-sugar level of normal mice; assay: Effect of Sequoyitol on blood-sugar level of normal mice; type: in vivo, Kunming mice; settings: Sequoyitol groups (25, 50, 100 mg/kg) oral 7 days
Experimental: 1. Experimental Method^[3] • 60 Mice were randomly divided into 5 groups, […] according to 0.1 ml/10 g of body weight, respectively, and the normal group was administrated with the same volum of the same volum of distilled water. These administrations were conducted for continuous 7 days. The blood-sugar levels were detected by glucose oxidase method.

[4] = 50 and 100 mg/kg Sequoyitol groups, oral 18 days
[5] = Sequoyitol 50 mg/kg oral 18 days
[6] = Sequoyitol 100 mg/kg oral 18 days

Structure (SMILES): COC1C(O)C(O)C(O)C(O)C1O (stereo not shown) [Sequoyitol, 5-O-methyl-myo-inositol]
- main organs under macroscopic observation ([1]; executed after 14 days): free of abnormality
- animals' responses after intravenous injection ([1]; observed 14 days): better health status, gloss fur, bright eyes, and good rang of motion
- hyalinization of interstitial small vessels (histopathologic examination) [2, 4]: alleviated
- inflammatory cell infiltration (histopathologic examination) [2, 4]: reduced
- body weight of diabetes rats compared to the control group ([2]; 50 and 100 mg/kg Sequoyitol groups, oral, since the 15th day (increased at the 13th day)): significantly increased
- serum insulin level increased compared to the control group ([2]; Sequoyitol 25 mg/kg oral 18 days): 1.01 μlU/ml
- alloxan-induced hyperglycemia compared to the control group ([2]; Sequoyitol 25 mg/kg oral, 12th day): significantly alleviated
- blood-sugar level decreased compared to the control group ([2]; Sequoyitol 25 mg/kg oral, 18th day): 194.4 mg/dL
- body weight of diabetes rats compared to the control group ([2]; Sequoyitol 25 mg/kg oral, at the 17th day (increased at the 15th day)): significantly increased
- content of cholesterol in serum decreased compared to the control group [2, 5]: 22.2 mg/dL
- content of triglyceride in serum decreased compared to the control group [2, 5]: 15.7 mg/dL
- serum insulin level increased compared to the control group [2, 5]: 1.45 μl U/ml
- blood-sugar level decreased compared to the control group ([2]; Sequoyitol 50 mg/kg oral, 6th day): 129.1 mg/dL
- blood-sugar level decreased compared to the control group ([2]; Sequoyitol 50 mg/kg oral, 12th day): 200.7 mg/dL
- blood-sugar level decreased compared to the control group ([2]; Sequoyitol 50 mg/kg oral, 18th day): 223.1 mg/dL
- activity of hepatocuprein in liver tissue increased compared to the control group [2, 6]: 18.3 NU/mg prot
- activity of hepatocuprein in serum increased compared to the control group [2, 6]: 55.0 NU/ml
- content of malonaldehyde in liver tissue decreased compared to the control group [2, 6]: 4.29 nmol/mg prot
- content of malonaldehyde in serum decreased compared to the control group [2, 6]: 4.13 nmol/dL
- serum insulin level increased compared to the control group [2, 6]: 3.36 μlU/ml
- blood-sugar level decreased compared to the control group ([2]; Sequoyitol 100 mg/kg oral, 6th day): 120 mg/dL
- blood-sugar level decreased compared to the control group ([2]; Sequoyitol 100 mg/kg oral, 12th day): 218.2 mg/dL
- blood-sugar level decreased compared to the control group ([2]; Sequoyitol 100 mg/kg oral, 18th day): 240.3 mg/dL
- number of pancreatic islands and number of cells in pancreatic islands (histopathologic examination) compared to the model group ([2]; Sequoyitol groups (25, 50, 100 mg/kg oral 18 days)): increased significantly
- blood-sugar level compared with the normal group [3]: not significantly different
